Test results taken from US20250270246A1, “LINCOSAMIDES AND USES THEREOF” (President and Fellows of Harvard College, priority 2022, published 2025).
Counter-ions that a name gives are not always drawn. Like-named read-outs stand apart in the source and are kept apart here.

Experiments:
Assay in all cases: MIC by broth microdilution (CLSI)
Format in all cases: cell-based
[1] = system: A. baumannii ATCC 19606 (HAV#010); details: HAV#010, ATCC 19606, CaMHB, 24 h incubation; for MIC: Acinetobacter baumannii, ATCC19606, 24 h, read-out: MIC A. baumannii ATCC 19606
Experimental: (§1) Minimum inhibitory concentrations (MICs) were determined by the broth microdilution method following the Clinical and Laboratory Standards Institute (CLSI) guidelines. Test organisms consisted of standard reference strains from the American Type Culture Collection (ATCC; Manassa, VA, USA) and clinical isolates obtained from JMI Laboratories Inc. (North Liberty, IA, USA), Micromyx repository (MMX; Kalamazoo, MI, USA), and Massachusetts Eye and Ear Hospital (Boston, USA). Before the start of the MIC experiment, standard and test compound stock solutions were prepared in dimethyl sulfoxide (DMSO, Aldrich D2650) at a stock concentration of 2,560 μg/mL. The compound concentration range typically employed for each experiment was 64-0.06 μg/mL (2.5% final DMSO concentration). Iboxamycin was used as a comparator in all experiments. All bacterial strains were sub-cultured on blood agar plates (tryptic soy agar with 5% sheep blood, Hardy Diagnostics) and incubated overnight at 35° C. Organisms were suspended in cation-adjusted Mueller-Hinton broth (CaMHB, BD 212322) and optical density was adjusted to 0.5 McFarland standard. Suspensions were further diluted to obtain a final inoculum of 5×10^5 CFU/mL for broth microdilution experiments. The minimum concentration of compound required to inhibit visible bacterial growth after 24 h of incubation was recorded as the MIC in μg/mL. MICs for P. aeruginosa were recorded in cation-adjusted Mueller-Hinton broth which had been pre-treated with Chelex 100 ion exchange resin according to procedures reported in Ito et al. Antimicrob Agents Chemother (2016) 60 (12), 7396-7401.

[2] = system: E. coli ATCC 25922 (HAV#006); details: for MIC: Escherichia coli, ATCC25922, 24 h, read-out: MIC E. coli ATCC 25922
Experimental: as §1

E. coli lptD mutant = details: CaMHB, 24 h incubation; for MIC: Escherichia coli, 24 h, read-out: MIC E. coli lptD mutant, lptD mutant / ΔlptD mutant
Experimental: as §1

[3] = system: E. faecalis ATCC 29212 (HAV#005); details: for MIC: Enterococcus faecalis, ATCC29212, 24 h, read-out: MIC E. faecalis ATCC 29212
Experimental: as §1

E. faecium JMI-990536 = details: JMI-990536, CaMHB, 24 h incubation; for MIC: Enterococcus faecium, JMI990536, 24 h, read-out: MIC E. faecium JMI-990536
Experimental: as §1

K. pneumoniae JMI-991193 = details: Klebsiella pneumoniae, JMI991193, 24 h, read-out: MIC K. pneumoniae JMI-991193
Experimental: as §1

[4] = system: S. aureus ATCC 29213 (HAV#001); details: for MIC: Staphylococcus aureus, ATCC29213, 24 h, read-out: MIC S. aureus ATCC 29213
Experimental: as §1

S. aureus Clinical (cfr) = details: for MIC: Staphylococcus aureus, 24 h, read-out: MIC S. aureus Clinical (cfr)
Experimental: as §1

S. aureus MMX 3035 = details: for MIC: Staphylococcus aureus, MMX3035, 24 h, read-out: MIC S. aureus MMX 3035
Experimental: as §1

E. coli ΔtolC = details: CaMHB, 24 h incubation; for MIC: Escherichia coli, 24 h, read-out: MIC E. coli ΔtolC, ΔtolC
Experimental: as §1

[5] = HAV#006, ATCC 25922, CaMHB, 24 h incubation
[6] = HAV#005, ATCC 29212, CaMHB, 24 h incubation
[7] = JMI-991193, CaMHB, 24 h incubation
[8] = HAV#001, ATCC 29213, CaMHB, 24 h incubation
[9] = Clinical (cfr), CaMHB, 24 h incubation
[10] = MMX 3035, CaMHB, 24 h incubation

Compound	MIC [1]	MIC [2, 5]	MIC (E. coli lptD mutant)	MIC [3, 6]	MIC (E. faecium JMI-990536)	MIC (K. pneumoniae JMI-991193; [7])	MIC [4, 8]	MIC (S. aureus Clinical (cfr); [9])	MIC (S. aureus MMX 3035; [10])	MIC (E. coli ΔtolC)	also measured
CC(C)C[C@@H]1CCO[C@@H]2[C@H](CN[C@@H]2C(=O)N[C@@H]2C/C=C/[C@@H](CO)CSC3O[C@H]2C(O)C(O)[C@H]3O)C1 (single isomer, unassigned) [FSA1608025A, formate salt]	> 64 µg/mL	32 µg/mL	8 µg/mL	4 µg/mL	8 µg/mL	> 64 µg/mL	4 µg/mL	64 µg/mL	64 µg/mL	–	–
CC(C)C[C@@H]1CCO[C@@H]2[C@H](CN[C@@H]2C(=O)N[C@@H]2C/C=C/[C@H](CO)CSC3O[C@H]2C(O)C(O)[C@H]3O)C1 (single isomer, unassigned) [FSA1608025B, formate salt]	> 64 µg/mL	> 64 µg/mL	> 64 µg/mL	32 µg/mL	32 µg/mL	> 64 µg/mL	32 µg/mL	> 64 µg/mL	> 64 µg/mL	> 64 µg/mL	–
CC(C)C[C@@H]1CCO[C@@H]2[C@H](CN[C@@H]2C(=O)N[C@@H]2C(C)/C=C/CCCSC3OC2C(O)C(O)C3O)C1 (stereo in doubt) [FSA1609094, (4S,5aS,8S,8aR)-4-isobutyl-N-((1R,8S,9R,10R,11R,12S,13R,E)-11,12,13-trihydroxy-8-methyl-14-oxa-2-thiabicyclo[8.3.1]tetradec-6-en-9-yl) octahydro-2H-oxepino[2,3-c]pyrrole-8-carboxamide formate salt]	–	–	–	–	–	> 32 µg/mL	–	–	–	–	MIC A. baumannii ATCC 19606 ([1]; formate salt): >32 µg/mL; MIC E. coli ATCC 25922 ([2]; HAV#006, ATCC 25922, CaMHB, 24 h incubation, formate salt): >32 µg/mL; MIC E. coli lptD mutant (E. coli lptD mutant; lptD mutant / ΔlptD mutant, formate salt): 32 µg/mL; MIC E. coli ΔtolC (E. coli ΔtolC; ΔtolC, formate salt): 32 µg/mL; MIC E. faecalis ATCC 29212 ([3]; HAV#005, ATCC 29212, CaMHB, 24 h incubation, formate salt): 2 µg/mL; MIC E. faecium JMI-990536 (E. faecium JMI-990536; formate salt): >32 µg/mL; MIC S. aureus ATCC 29213 ([4]; HAV#001, ATCC 29213, CaMHB, 24 h incubation, formate salt): 0.25 µg/mL; MIC S. aureus Clinical (cfr) (S. aureus Clinical (cfr); Clinical (cfr), CaMHB, 24 h incubation, formate salt): >32 µg/mL; MIC S. aureus MMX 3035 (S. aureus MMX 3035; MMX 3035, CaMHB, 24 h incubation, formate salt): >32 µg/mL
CC(C)C[C@@H]1CCO[C@@H]2[C@H](CN[C@@H]2C(=O)N[C@@H]2C/C=C\C[C@@H](CN3CCCC3)S[C@H]3O[C@H]2[C@H](O)[C@H](O)[C@H]3O)C1 [FSA1606086, (4S,5aS,8S,8aR)-4-isobutyl-N-((1R,3S,8R,9R,10R,11S,12R,Z)-10,11,12-trihydroxy-3-(pyrrolidin-1-ylmethyl)-13-oxa-2-thiabicyclo[7.3.1]tridec-5-en-8-yl) octahydro-2H-oxepino[2,3-c]pyrrole-8-carboxamide formate salt]	> 64 µg/mL	64 µg/mL	4 µg/mL	16 µg/mL	16 µg/mL	> 64 µg/mL	16 µg/mL	> 64 µg/mL	64 µg/mL	2 µg/mL	–
CC(C)C[C@@H]1CCO[C@@H]2[C@H](CN[C@@H]2C(=O)N[C@@H]2C/C=C/[C@@H](O)CS[C@H]3O[C@H]2[C@H](O)[C@H](O)[C@H]3O)C1 [FSA1608016, (4S,5aS,8S,8aR)-4-isobutyl-N-((1R,4R,8R,9R,10R,11S,12R,E)-4,10,11,12-tetrahydroxy-13-oxa-2-thiabicyclo[7.3.1]tridec-5-en-8-yl) octahydro-2H-oxepino[2,3-c]pyrrole-8-carboxamide formate salt]	> 64 µg/mL	64 µg/mL	8 µg/mL	8 µg/mL	8 µg/mL	> 64 µg/mL	8 µg/mL	> 64 µg/mL	> 64 µg/mL	–	–
CC(C)C[C@@H]1CCO[C@@H]2[C@H](CN[C@@H]2C(=O)N[C@@H]2C/C=C\[C@@H](CO)CS[C@H]3O[C@H]2[C@H](O)[C@H](O)[C@H]3O)C1 [FSA1608024, (4S,5aS,8S,8aR)-4-isobutyl-N-((1R,4S,8R,9R,10R,11S,12R,Z)-10,11,12-trihydroxy-4-(hydroxymethyl)-13-oxa-2-thiabicyclo[7.3.1]tridec-5-en-8-yl) octahydro-2H-oxepino[2,3-c]pyrrole-8-carboxamide formate salt]	> 64 µg/mL	16 µg/mL	4 µg/mL	2 µg/mL	2 µg/mL	> 64 µg/mL	4 µg/mL	64 µg/mL	64 µg/mL	–	–
CC(C)C[C@@H]1CCO[C@@H]2[C@H](CN[C@@H]2C(=O)N[C@@H]2C/C=C\[C@@H](CN3CCOCC3)CS[C@H]3O[C@H]2[C@H](O)[C@H](O)[C@H]3O)C1 [FSA1608036, (4S,5aS,8S,8aR)-4-isobutyl-N-((1R,4S,8R,9R,10R,11S,12R,Z)-10,11,12-trihydroxy-4-(morpholinomethyl)-13-oxa-2-thiabicyclo[7.3.1]tridec-5-en-8-yl) octahydro-2H-oxepino[2,3-c]pyrrole-8-carboxamide formate salt]	16 µg/mL	1 µg/mL	–	1 µg/mL	1 µg/mL	8 µg/mL	0.5 µg/mL	8 µg/mL	16 µg/mL	0.25 µg/mL	–
CC(C)C[C@@H]1CCO[C@@H]2[C@H](CN[C@@H]2C(=O)N[C@@H]2C/C=C\[C@@H](CN3CCCC3)CS[C@H]3O[C@H]2[C@H](O)[C@H](O)[C@H]3O)C1 [FSA1608037, (4S,5aS,8S,8aR)-4-isobutyl-N-((1R,4S,8R,9R,10R,11S,12R,Z)-10,11,12-trihydroxy-4-(pyrrolidin-1-ylmethyl)-13-oxa-2-thiabicyclo[7.3.1]tridec-5-en-8-yl) octahydro-2H-oxepino[2,3-c]pyrrole-8-carboxamide formate salt]	> 64 µg/mL	> 64 µg/mL	4 µg/mL	16 µg/mL	16 µg/mL	> 64 µg/mL	32 µg/mL	> 64 µg/mL	> 64 µg/mL	–	–
CC(C)C[C@@H]1CCO[C@@H]2[C@H](CN[C@@H]2C(=O)N[C@H]2[C@H]3O[C@H](S[C@H](c4cn(-c5ccc(F)cc5)nn4)C/C=C\[C@H]2C)[C@H](O)[C@@H](O)[C@H]3O)C1 [FSA1609037, (4S,5aS,8S,8aR)—N-((1R,3S,7R,8R,9R,10R,11S,12R,Z)-3-(1-(4-fluorophenyl)-1H-1,2,3-triazol-4-yl)-10,11,12-trihydroxy-7-methyl-13-oxa-2-thiabicyclo[7.3.1]tridec-5-en-8-yl)-4-isobutyloctahydro-2H-oxepino[2,3-c]pyrrole-8-carboxamide formate salt]	–	–	0.5 µg/mL	–	–	–	–	–	–	0.5 µg/mL	MIC [2]: 1 µg/mL; MIC [3]: 0.25 µg/mL; MIC (K. pneumoniae JMI-991193): 16 µg/mL; MIC [4]: 0.5 µg/mL; MIC (S. aureus Clinical (cfr)): 1 µg/mL; MIC (S. aureus MMX 3035): 0.5 µg/mL
